Data from publication PMC9000418 (Molecules, 2022).
Where two headings read alike, the source gives them in different places.

Columns and labels:
[1] = target: AChE (Electrophorus electricus, UniProt O42275); test: AChE inhibition, in vitro modified Ellman's spectrophotometric method; assay type: biochemical; conditions: read-out: AChE % Inhibition
From the text: The assay was completed in two steps.
The reagents and materials used in the enzyme inhibition assay were supplied commercially by Sigma-Aldrich (St. Louis, MO, USA) and Fluka (Steinheim, Germany). The cholinesterase enzyme inhibition procedure was applied as reported in our previous research papers.

[2] = tested on: BChE; assay type: biochemical
Experimental: The inhibitory activities of all of the obtained chalcone derivatives (3a–3j) against cholinesterase enzymes were evaluated using the previously described in vitro modified Ellman’s spectrophotometric method.
The assay was completed in two steps. […].
[…]. The reagents and materials used in the enzyme inhibition assay were supplied commercially by Sigma-Aldrich (St. Louis, MO, USA) and Fluka (Steinheim, Germany). The cholinesterase enzyme inhibition procedure was applied as reported in our previous research papers.

[3] = DPPH free radical scavenging antioxidant activity
From the text: This activity method is a method based on measuring the scavenging effects of the DPPH• (1,1-Diphenyl-2-picrylhydrazil) radical, which is a stable organic nitrogen radical of antioxidants. One of the few stable organic nitrogen radicals, the DPPH• radical is dark violet in color. This method, which is based on the scavenging of the DPPH radical via antioxidants, is a redox reaction. When this radical interacts with hydrogen donors, it is reduced to hydrazine. The dark purple color of the methanolic DPPH• solution turns yellow with the addition of antioxidants, and the change in absorbance is measured spectrophotometrically. More illumination is determined by a greater reduction in the absorbance of the reaction mixture and indicates higher radical scavenging capacity.
For the DPPH free radical scavenging activity test, test compounds were prepared at 10 µM, 1 µM, 0.1 µM, and 0.01 µM concentrations, as shown in Figure 3. By using the absorbance changes determined because of the spectroscopic measurement, the % DPPH free radical scavenging activities of the synthesized compounds and reference materials (ascorbic acid and citric acid) were determined. The % antioxidant activities of all tested compounds were calculated based on the control.
This is a method based on measuring the scavenging effects of the DPPH (1,1-Diphenyl-2- picrylhydrazyl) radical, a stable organic nitrogen-centered free radical. To prepare the DPHH solution, 9.86 mg of DPPH was measured and topped up to 25 mL with methanol. A total of 100 µL of DPPH solution and 100 µL of the test solutions were placed in the test wells. Only 200 µL of methanol was used for blank reading; 100 µL of methanol and 100 µL of DPPH solution were used for control. After incubation, spectrophotometric reading was performed at 517 nm.

[4] = In vitro BBB permeability assay (PAMPA); assay type: in vitro ADME; conditions: for Type of BBB Permeation: PAMPA, PBS pH 7.4, donor 100 μM; for BBB permeability (in words): in vitro PAMPA
Experimental: As it is known, the ability of drugs to be used in diseases related to the central nervous system to pass the blood–brain barrier is an indispensable feature. These properties of the synthesized compounds were estimated using physicochemical parameters. […].
To observe the BBB permeability of the active compounds 3i and 3j, the parallel artificial membrane permeability assay (PAMPA) was performed as previously described. Briefly, the solutions of each compound were prepared in dimethyl sulfoxide (DMSO) at 10 mM and then diluted with PBS (Phosphate-Buffered Saline; pH = 7.4) to obtain the donor drug solution with the nominal final concentration of 100 μM (297 μL of buffer + 3 μL of DMSO drug solution). An amount of 100 μM is suitable for direct HPLC-DAD measurements. This solution was shaken for 1 h at room temperature in a 96-well polypropylene plate (Agilent, Waldbronn, Germany) and then filtered to avoid solid particles. The data were measured in 3 replicates on each plate. After the preparation of the solutions, the assay procedure was performed according to the kit method.

[5] = Cytotoxicity MTT assay in NIH/3T3 cell line; assay type: cell-based; conditions: mouse, NIH/3T3 mouse embryonic fibroblast cells, read-out: IC50 against NIH/3T3 cells (cytotoxicity)
Experimental: The NIH/3T3 mouse embryonic fibroblast cell line (ATCC® CRL-1658™, London, UK) was used for cytotoxicity assays. The incubation period of NIH/3T3 cells was based on the supplier’s recommendation. NIH/3T3 cells were seeded at 1 × 10^4 cells into each well of the 96-well plates. The MTT assay was carried out in accordance with the standards previously described.

AChE, sequence (O42275 24-633): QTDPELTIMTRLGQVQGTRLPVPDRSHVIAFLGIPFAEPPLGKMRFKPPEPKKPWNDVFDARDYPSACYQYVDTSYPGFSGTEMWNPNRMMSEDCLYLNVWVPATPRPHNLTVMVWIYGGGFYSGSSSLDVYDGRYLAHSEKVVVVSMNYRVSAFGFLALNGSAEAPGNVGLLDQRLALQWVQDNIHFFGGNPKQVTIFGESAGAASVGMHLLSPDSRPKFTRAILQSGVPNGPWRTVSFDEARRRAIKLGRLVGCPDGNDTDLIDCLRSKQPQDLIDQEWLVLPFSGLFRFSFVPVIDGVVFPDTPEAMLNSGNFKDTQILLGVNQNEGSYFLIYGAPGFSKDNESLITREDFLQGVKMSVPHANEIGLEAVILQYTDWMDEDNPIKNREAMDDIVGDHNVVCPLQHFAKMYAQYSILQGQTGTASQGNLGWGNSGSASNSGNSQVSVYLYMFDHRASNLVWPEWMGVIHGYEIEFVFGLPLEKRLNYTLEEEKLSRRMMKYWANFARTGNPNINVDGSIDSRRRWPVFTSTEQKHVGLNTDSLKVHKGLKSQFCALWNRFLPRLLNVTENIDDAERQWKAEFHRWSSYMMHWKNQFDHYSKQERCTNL

Row | Structure (SMILES) | inhibition at 100 µM [1] [%] | inhibition at 1000 µM [1] [%] | BChE % Inhibition ([2]; 10^−3 M) [%] | BChE % Inhibition ([2]; 10^−4 M) [%] | % DPPH free radical scavenging (inhibition) ([3]; 0.01 µM) | % DPPH free radical scavenging (inhibition) ([3]; 0.1 µM) | % DPPH free radical scavenging (inhibition) ([3]; 1 µM) | % DPPH free radical scavenging (inhibition) ([3]; 10 µM) | Type of BBB Permeation [4] | BBB permeability (in words) [4] | IC50 [5] [µM]
1 | CCNc1nnc(SCC(=O)c2ccc3c(c2)NC(=O)CS3)s1 [Compound 3a, 6-(2-((5-(Ethylamino)-1,3,4-thiadiazol-2-yl)sulfanyl)acetyl)-2H-benzo[b][1,4]thiazin-3(4H)-one] | 48.8 ± 0.8 | 78.2 ± 1.2 | 31.8 ± 0.8 | 25.1 ± 0.8 |  |  |  |  |  |  | 
2 | CCCNc1nnc(SCC(=O)c2ccc3c(c2)NC(=O)CS3)s1 [Compound 3b, 6-(2-((5-(Propylamino)-1,3,4-thiadiazol-2-yl)sulfanyl)acetyl)-2H-benzo[b][1,4]thiazin-3(4H)-one] | 45.6 ± 0.9 | 75.4 ± 1.4 | 34.9 ± 0.8 | 26.9 ± 0.6 |  |  |  |  |  |  | 
3 | CC(C)Nc1nnc(SCC(=O)c2ccc3c(c2)NC(=O)CS3)s1 [Compound 3c, 6-(2-((5-(Isopropylamino)-1,3,4-thiadiazol-2-yl)sulfanyl)acetyl)-2H-benzo[b][1,4]thiazin-3(4H)-one] | 40.1 ± 0.9 | 70.6 ± 1 | 29.1 ± 0.8 | 20.4 ± 0.7 |  |  |  |  |  |  | 
4 | CCCCNc1nnc(SCC(=O)c2ccc3c(c2)NC(=O)CS3)s1 [Compound 3d, 6-(2-((5-(Butylamino)-1,3,4-thiadiazol-2-yl)sulfanyl)acetyl)-2H-benzo[b][1,4]thiazin-3(4H)-one] | 47.3 ± 0.9 | 72.7 ± 1.5 | 36.1 ± 0.9 | 21.4 ± 0.9 |  |  |  |  |  |  | 
5 | CC(C)CNc1nnc(SCC(=O)c2ccc3c(c2)NC(=O)CS3)s1 [Compound 3e, 6-(2-((5-(Isobutylamino)-1,3,4-thiadiazol-2-yl)sulfanyl)acetyl)-2H-benzo[b][1,4]thiazin-3(4H)-one] | 46.2 ± 0.8 | 69.9 ± 1.2 | 37.3 ± 0.8 | 24.6 ± 0.9 |  |  |  |  |  |  | 
6 | O=C1CSc2ccc(C(=O)CSc3nnc(NC4CCCCC4)s3)cc2N1 [Compound 3f, 6-(2-((5-(Cyclohexylamino)-1,3,4-thiadiazol-2-yl)sulfanyl)acetyl)-2H-benzo[b][1,4]thiazin-3(4H)-one] | 45 ± 1 | 65.4 ± 1.3 | 30.5 ± 0.8 | 26.2 ± 0.8 |  |  |  |  |  |  | 
7 | O=C1CSc2ccc(C(=O)CSc3nnc(Nc4ccccc4)s3)cc2N1 [Compound 3g, 6-(2-((5-(Phenylamino)-1,3,4-thiadiazol-2-yl)sulfanyl)acetyl)-2H-benzo[b][1,4]thiazin-3(4H)-one] | 44.5 ± 0.8 | 80.1 ± 1.2 | 39.6 ± 0.9 | 24.8 ± 0.8 |  |  |  |  |  |  | 
8 | Cc1ccc(Nc2nnc(SCC(=O)c3ccc4c(c3)NC(=O)CS4)s2)cc1 [Compound 3h, 6-(2-((5-(p-Tolylamino)-1,3,4-thiadiazol-2-yl)sulfanyl)acetyl)-2H-benzo[b][1,4]thiazin-3(4H)-one] | 42.7 ± 0.8 | 82.2 ± 1.8 | 35.6 ± 0.7 | 23.5 ± 0.7 |  |  |  |  |  |  | 
9 | COc1ccc(Nc2nnc(SCC(=O)c3ccc4c(c3)NC(=O)CS4)s2)cc1 [Compound 3i, 6-(2-((5-((4-Methoxyphenyl)amino)-1,3,4-thiadiazol-2-yl)sulfanyl)acetyl)-2H-benzo[b][1,4]thiazin-3(4H)-one] | 90.5 ± 1.1 | 93.2 ± 1.4 | 40.2 ± 0.9 | 28.0 ± 0.8 | 65.00% ± 1.10 | 75.00% ± 1.80 | 82.00% ± 1.20 | 90.00% ± 2.40 | CNS+ High BBB permeation (High BBB permeation Pe (10^−6 cm s^−1) > 4.0) | high BBB permeability | 98.3 ± 3.98
10 | O=C1CSc2ccc(C(=O)CSc3nnc(Nc4ccc(Cl)cc4)s3)cc2N1 [Compound 3j, 6-(2-((5-((4-chlorophenyl)amino)-1,3,4-thiadiazol-2-yl)sulfanyl)acetyl)-2H benzo[b][1,4]thiazin-3(4H)-one] | 92.3 ± 1.3 | 96.5 ± 1.2 | 42.5 ± 0.9 | 27.9 ± 0.7 | 68.00% ± 1.50 | 73.00% ± 1.40 | 85.00% ± 2.00 | 92.00% ± 1.80 | CNS+ High BBB permeation (High BBB permeation Pe (10^−6 cm s^−1) > 4.0) | high BBB permeability | 160 ± 5.53
